This assay addresses T1, recombinant IL4I1 (Homo sapiens, UniProt Q96RQ9).
T1 construct: purchased R&D Systems 5684-AO-020
T1 sequence (Q96RQ9 22-567): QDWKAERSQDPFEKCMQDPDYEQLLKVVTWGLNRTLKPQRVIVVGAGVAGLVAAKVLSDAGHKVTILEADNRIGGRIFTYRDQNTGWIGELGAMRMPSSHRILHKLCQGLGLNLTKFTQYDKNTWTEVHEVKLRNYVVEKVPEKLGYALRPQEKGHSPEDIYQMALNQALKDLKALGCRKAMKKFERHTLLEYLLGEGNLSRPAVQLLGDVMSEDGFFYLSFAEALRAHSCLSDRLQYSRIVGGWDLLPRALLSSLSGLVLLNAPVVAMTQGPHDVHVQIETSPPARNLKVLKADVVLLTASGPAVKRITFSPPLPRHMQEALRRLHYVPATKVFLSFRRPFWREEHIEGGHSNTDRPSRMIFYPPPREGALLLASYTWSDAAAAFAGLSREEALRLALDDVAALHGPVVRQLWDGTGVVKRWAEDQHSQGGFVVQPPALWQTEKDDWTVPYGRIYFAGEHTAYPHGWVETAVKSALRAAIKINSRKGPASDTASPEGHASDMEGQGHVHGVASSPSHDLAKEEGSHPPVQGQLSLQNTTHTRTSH
In words: IL4I1 Enzymatic Assay (Amplex Red/HRP coupled detection of H2O2, fluorescence). To be noted: 1 nM recombinant IL4I1; four-hour pre-incubation with compound; 1 mM each Phe, Tyr, Trp; ten-point titration. Type of assay: biochemical. In a few lines: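 Recombinant IL4I1 (1 nM final) pre-incubated 4 h at ambient temperature with compound (0.5% DMSO) in 50 mM Hepes pH 7.0, 0.005% Tween20; reaction started with 1 mM each Phe/Tyr/Trp plus excess Amplex Red/HRP, run 120 min. H2O2 read as resorufin fluorescence; EC50 from 10-point four-parameter fit.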

pEC50: −log10 of the molar value.

In the case of `Cc1cc(C(=O)NCc2nnc(-c3ccccc3)s2)ns1` [Example 260, 5-methyl-N-((5-phenyl-1,3,4-thiadiazol-2-yl)methyl)isothiazole-3-carboxamide], the pEC50 is 7.16. In the case of `Cc1ccc(-n2cc(C(=O)NCc3ccc(-c4ccccc4)nn3)nn2)c(C)n1` [Example 261, 1-(2,6-dimethylpyridin-3-yl)-N-((6-phenylpyridazin-3-yl)methyl)-1H-1,2,3-triazole-4-carboxamide] it was 7.60; in that of `Cc1ccc(-n2cc(C(=O)NCc3nnc(-c4cccnc4)s3)nn2)c(C)n1` [Example 264, 1-(2,6-dimethylpyridin-3-yl)-N-((5-(pyridin-3-yl)-1,3,4-thiadiazol-2-yl)methyl)-1H-1,2,3-triazole-4-carboxamide], 6.32; in that of `Cc1ccc(-n2cc(C(=O)NCc3nnc(-c4ccncc4)s3)nn2)c(C)n1` [Example 265, 1-(2,6-dimethylpyridin-3-yl)-N-((5-(pyridin-4-yl)-1,3,4-thiadiazol-2-yl)methyl)-1H-1,2,3-triazole-4-carboxamide], 7.80. Regarding `Cc1ccc(-n2cc(C(=O)NCc3cc(-c4ccncc4)on3)nn2)c(C)n1` [Example 266, 1-(2,6-dimethylpyridin-3-yl)-N-((5-(pyridin-4-yl)isoxazol-3-yl)methyl)-1H-1,2,3-triazole-4-carboxamide], the pEC50 was 7.59. The result for `Cc1ccc(-n2cc(C(=O)NCc3nnc(-c4ccccc4)s3)nn2)cn1` [Example 267, 1-(6-methylpyridin-3-yl)-N-((5-phenyl-1,3,4-thiadiazol-2-yl)methyl)-1H-1,2,3-triazole-4-carboxamide] reads 6.84; that for `O=C(NCc1nnc(-c2ccccc2)s1)c1cn(C2CC2)nn1` [Example 268, 1-cyclopropyl-N-((5-phenyl-1,3,4-thiadiazol-2-yl)methyl)-1H-1,2,3-triazole-4-carboxamide], 8.10; that for `CC(C)n1cc(C(=O)NCc2nnc(-c3ccncc3)s2)nn1` [Example 269, 1-isopropyl-N-((5-(pyridin-4-yl)-1,3,4-thiadiazol-2-yl)methyl)-1H-1,2,3-triazole-4-carboxamide], 8.00. Consider `Cc1cnc(-n2cc(C(=O)NCc3nnc(-c4ccccc4)s3)nn2)c(C)n1` [Example 270, 1-(3,5-dimethylpyrazin-2-yl)-N-((5-phenyl-1,3,4-thiadiazol-2-yl)methyl)-1H-1,2,3-triazole-4-carboxamide], for which the pEC50 was 7.70.

As for `CC(C)(C(N)=O)n1cc(C(=O)NCc2cc(-c3ccccc3)on2)nn1` [Example 271, 1-(1-amino-2-methyl-1-oxopropan-2-yl)-N-((5-phenylisoxazol-3-yl)methyl)-1H-1,2,3-triazole-4-carboxamide], the pEC50 is 7.57.

Consider `O=C(NCc1nnc(-c2ccccc2)s1)c1cn(C(F)F)nn1` [Example 272, 1-(difluoromethyl)-N-((5-phenyl-1,3,4-thiadiazol-2-yl)methyl)-1H-1,2,3-triazole-4-carboxamide], for which the pEC50 is 7.92.

As to `Cc1ccc(-n2cc(C(=O)NCc3cc(-c4nccs4)on3)nn2)c(C)n1` [Example 273, 1-(2,6-dimethylpyridin-3-yl)-N-((5-(thiazol-2-yl)isoxazol-3-yl)methyl)-1H-1,2,3-triazole-4-carboxamide], the pEC50 was 6.29. The result for `O=C(NCc1nnc(-c2ccccc2)s1)c1cn(C(F)(F)F)nn1` [Example 274, N-((5-phenyl-1,3,4-thiadiazol-2-yl)methyl)-1-(trifluoromethyl)-1H-1,2,3-triazole-4-carboxamide] reads 7.51. In the case of `Cc1nc(C2COC2)ccc1-n1cc(C(=O)NCc2nnc(-c3ccccc3)s2)nn1` [Example 277, 1-(2-methyl-6-(oxetan-3-yl)pyridin-3-yl)-N-((5-phenyl-1,3,4-thiadiazol-2-yl)methyl)-1H-1,2,3-triazole-4-carboxamide], the pEC50 was 6.75.

As to `Cc1ccc(-n2cc(C(=O)NCc3nnc(-c4ccccc4)s3)nn2)c(Cl)n1` [Example 278, 1-(2-chloro-6-methylpyridin-3-yl)-N-((5-phenyl-1,3,4-thiadiazol-2-yl)methyl)-1H-1,2,3-triazole-4-carboxamide], the pEC50 is 7.82.

As to `Cc1ccc(-n2cc(C(=O)NCc3nnc(-c4ccccc4)s3)nn2)c(Br)n1` [Example 279, 1-(2-bromo-6-methylpyridin-3-yl)-N-((5-phenyl-1,3,4-thiadiazol-2-yl)methyl)-1H-1,2,3-triazole-4-carboxamide], the negative logarithm of the EC50 (pEC50) was 8.10. In the case of `Cc1ncc(-n2cc(C(=O)NCc3nnc(-c4ccccc4)s3)nn2)c(C)n1` [Example 280, 1-(2,4-dimethylpyrimidin-5-yl)-N-((5-phenyl-1,3,4-thiadiazol-2-yl)methyl)-1H-1,2,3-triazole-4-carboxamide] it was 6.07; in that of `O=C(NCc1nnc(-c2ccccc2)s1)c1cn([C@H]2C[C@H](O)C2)nn1` [Example 281], 7.96.

For the compound `O=C(NCc1nnc(-c2ccccc2)s1)c1cn([C@H]2C[C@@H](O)C2)nn1` [Example 282], the pEC50 was 8.30. In the case of `Cc1ccc(-c2cc(C(=O)NCc3nnc(-c4ccccc4)s3)on2)c(C)n1` [Example 283, 3-(2,6-dimethylpyridin-3-yl)-N-((5-phenyl-1,3,4-thiadiazol-2-yl)methyl)isoxazole-5-carboxamide] it was 6.78; in that of `O=C(NCc1cc(-c2ccncc2)no1)c1cn(C2CC2)nn1` [Example 284, 1-cyclopropyl-N-((3-(pyridin-4-yl)isoxazol-5-yl)methyl)-1H-1,2,3-triazole-4-carboxamide], 7.13; in that of `O=C(NCc1nnc(-c2ccccc2)s1)c1cn(-c2cn[nH]c2)nn1` [Example 287, N-((5-phenyl-1,3,4-thiadiazol-2-yl)methyl)-1-(1H-pyrazol-4-yl)-1H-1,2,3-triazole-4-carboxamide], 8.05.

Take `Cn1cc(-n2cc(C(=O)NCc3nnc(-c4ccccc4)s3)nn2)cn1` [Example 288, 1-(1-methyl-1H-pyrazol-4-yl)-N-((5-phenyl-1,3,4-thiadiazol-2-yl)methyl)-1H-1,2,3-triazole-4-carboxamide]: the pEC50 was 7.41. In the case of `Cn1nnc(C(=O)NCc2nnc(-c3ccccc3)s2)c1F` [Example 289, 5-fluoro-1-methyl-N-((5-phenyl-1,3,4-thiadiazol-2-yl)methyl)-1H-1,2,3-triazole-4-carboxamide] it was 6.52; in that of `O=C(NCc1ccc(-c2ccccc2)nn1)c1cn(C2COC2)nn1` [Example 290, 1-(oxetan-3-yl)-N-((6-phenylpyridazin-3-yl)methyl)-1H-1,2,3-triazole-4-carboxamide], 6.68; in that of `O=C(NCc1cc(-c2ccccc2)no1)c1cn(CC(F)F)nn1` [Example 291, 1-(2,2-difluoroethyl)-N-((3-phenylisoxazol-5-yl)methyl)-1H-1,2,3-triazole-4-carboxamide], 7.92.

As to `O=C(NCc1cc(-c2ccccc2)on1)c1cn(CC(F)F)nn1` [Example 292, 1-(2,2-difluoroethyl)-N-((5-phenylisoxazol-3-yl)methyl)-1H-1,2,3-triazole-4-carboxamide], the negative-log EC50 (pEC50) was 8.30. `O=C(NCc1ccc(-c2ccccc2)nn1)c1cn(CC(F)F)nn1` [Example 293, 1-(2,2-difluoroethyl)-N-((6-phenylpyridazin-3-yl)methyl)-1H-1,2,3-triazole-4-carboxamide]: the pEC50 was 7.68. In the case of `Cn1cc(C(=O)NCc2nnc(N3CCCCC3)s2)nn1` [Example 294, 1-methyl-N-((5-(piperidin-1-yl)-1,3,4-thiadiazol-2-yl)methyl)-1H-1,2,3-triazole-4-carboxamide] it was 6.60; in that of `Cn1cc(C(=O)NCc2nnc(-c3ccc(O)cc3)s2)nn1` [Example 295, N-[[5-(4-hydroxyphenyl)-1,3,4-thiadiazol-2-yl]methyl]-1-methyl-triazole-4-carboxamide], 7.09; in that of `Cn1cc(C(=O)NCc2nnc(-c3ccc(Cl)cc3)s2)nn1` [Example 296, N-((5-(4-chlorophenyl)-1,3,4-thiadiazol-2-yl)methyl)-1-methyl-1H-1,2,3-triazole-4-carboxamide], 6.38. In the case of `Cn1cc(C(=O)NCc2nnc(-c3cncs3)s2)nn1` [Example 297, 1-methyl-N-((5-(thiazol-5-yl)-1,3,4-thiadiazol-2-yl)methyl)-1H-1,2,3-triazole-4-carboxamide] it was 7.10.

Turning to `Cc1ccc(-n2cc(C(=O)NCc3nnc(-c4cncs4)s3)nn2)c(C)n1` [Example 298, 1-(2,6-dimethylpyridin-3-yl)-N-((5-(thiazol-5-yl)-1,3,4-thiadiazol-2-yl)methyl)-1H-1,2,3-triazole-4-carboxamide], the pEC50 is 7.85.

Consider `Cn1cc(C(=O)NCc2nnc(-c3cn[nH]c3)s2)nn1` [Example 299, N-((5-(1H-pyrazol-4-yl)-1,3,4-thiadiazol-2-yl)methyl)-1-methyl-1H-1,2,3-triazole-4-carboxamide], for which the pEC50 is 6.67.

The values above are taken from patent US20240336608A1, “IL4I1 INHIBITORS AND METHODS OF USE” (Merck Sharp & Dohme LLC, priority 2023, published 2024).
